{"source": "patent US10617732B2", "about": "“Composition including extract of Dolichos lablab Linne as active ingredient for preventing or ameliorating non-alcoholic fatty liver disease” (KOREA INSTITUTE OF ORIENTAL MEDICINE, priority 2014, dated 2020)", "test_system": "hepatocarcinoma cell line (HepG2)", "assay": "Oil Red O staining assay of triglyceride in free fatty acid-treated cells", "assay_type": "cell-based", "conditions": "HepG2, 1 mM free fatty acid; 10, 30, 50 and 100 μM", "protocol": "After the medium was removed from the Hepatocarcinoma cell line (HepG2), the cells were washed with 0.5 ml of PBS buffer solution, and the PBS buffer solution was completely removed therefrom. Then, 0.5 ml of 10% formalin was added thereto at room temperature and the resultant cells were incubated for 10 minutes.\nAfter removing the formalin and adding 0.5 ml of fresh formalin, the cells were incubated for at least 1 hour (the cells can be stored in a formalin solution for several days before staining, and needs to be wrapped with an aluminum foil and parafilm to prevent the cells from being dried). […]\n0.5 ml of an Oil Red O solution was added to the dried cells, which was then incubated at room temperature for 10 minutes. […] The debris of the staining solution was removed as much as possible, and images of the cells were obtained using a fluorescence microscope.\nTo the cells that had been completely dried, 0.5 ml of Oil Red O staining solution prepared by using 100% of isopropanol in a dry state was added. […] At this time, the resultant solution was mixed with a pipette up and down so that the cells were stained well with Oil Red O. Then, the mixture was transferred to a 96-well plate and the OD was measured at 500 nm. The OD value of 100% isopropanol was measured and used as a reference value (0 point).", "data": [{"smiles": "CC1(C)[C@@H](O)CC[C@]2(C)[C@H]3C(=O)C=C4[C@@H]5C[C@@](C)(C(=O)O)CC[C@]5(C)CC[C@@]4(C)[C@]3(C)CC[C@@H]12", "note": "[18 beta-glycyrrhetinic acid]", "values": [{"measurement": "content of triglyceride in Oil-red-O staining images", "value": "the higher concentration of 18 beta-glycyrrhetinic acid, the smaller content of triglyceride"}]}]}
